Data taken from patent publication US20240148821A1, “PHARMACEUTICAL USE OF CYCLIC PEPTIDE COMPOUND” (CHUGAI SEIYAKU KABUSHIKI KAISHA, priority 2021, published 2024).
Bridge positions count the residues as written; N and C are the ends. Square brackets hold non-standard residues; d marks the D form. Peptide text beside a SMILES is read from it. * marks the point of attachment. hPhe(3,5-F2-4-CF3) = N[C@@H](CCc1cc(F)c(C(F)(F)F)c(F)c1)C(=O)O; hPhe(3-Cl-4-CF3) = N[C@@H](CCc1ccc(C(F)(F)F)c(Cl)c1)C(=O)O; NMePhe(4-CF3) = CN[C@@H](Cc1ccc(C(F)(F)F)cc1)C(=O)O; NEtPhe(4-Me) = CCN[C@@H](Cc1ccc(C)cc1)C(=O)O; NMePhe(4-Cl) = CN[C@@H](Cc1ccc(Cl)cc1)C(=O)O; NMePhe(4-Me) = CN[C@@H](Cc1ccc(C)cc1)C(=O)O; NMeGly(cPent) = CN[C@H](C(=O)O)C1CCCC1; Pro(4,4-F2) = O=C(O)[C@@H]1CC(F)(F)CN1; NMe3Pal = CN[C@@H](Cc1cccnc1)C(=O)O; NMeCha = CN[C@@H](CC1CCCCC1)C(=O)O; NMehLeu = CN[C@@H](CCC(C)C)C(=O)O; NMeI = CC[C@H](C)[C@H](NC)C(=O)O; NMeD = CN[C@@H](CC(=O)O)C(=O)O; NMeL = CN[C@@H](CC(C)C)C(=O)O; NMeV = CN[C@H](C(=O)O)C(C)C; d(β3hA) = C[C@@H](N)CC(=O)O; Azetidin(1-yl) = C1CN(*)C1; NMeS = CN[C@@H](CO)C(=O)O; Morpholide = C1CN(*)CCO1; NMeA = CN[C@@H](C)C(=O)O; Piperidide = C1CCN(*)CC1; Pyrrolidide = C1CCN(*)C1; Ac5c = NC1(C(=O)O)CCCC1; Aze = O=C(O)[C@@H]1CCN1; NEtG = CCNCC(=O)O; Sar = CNCC(=O)O

Legend:
[1] = target: protein-protein interaction between Kras and SOS1 (biotin-tagged human Kras loaded with GDP, His-tagged human SOS1) (Homo sapiens (Human), UniProt P01116, G12D); experiment: Protein-protein interaction inhibition between Kras and SOS1 (KrasG12D-SOS PPI) using AlphaScreen; type: biochemical; settings: AlphaScreen; biotin-tagged human Kras loaded with GDP, His-tagged human SOS1; read-out: KRAS G12D-SOS PPI IC50;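 further: kras produced in E. coli, Ni-coupled donor beads and streptavidin acceptor beads, excitation 680 nm with emission detected at 520–620 nm via singlet oxygen transfer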
[2] = tested on: Human pancreatic cancer cell line AsPC-1 (G12D mutation Kras); experiment: AsPC-1 cell growth inhibition (AsPC-1 CGI); type: cell-based; settings: read-out: AsPC-1 cell growth inhibition, 50% growth inhibitory concentration (IC50 value); 96 hours, CellTiter-Glo, values classified in ranges
Experimental: Test compounds were serially dilated with dimethyl sulfoxide, and 200 nL was then dispensed to a U-bottom 96-well plate using Labcyte Echo. […] The cell suspension was dispensed to a. plate containing a test compound at 100 μL per well and incubated at 37° C. in a 5% carbon dioxide gas incubator. 96 hours later, 80 μL of CellTiter-Glo (Promega) was added to each well and fluorescence was measured.

| SMILES | IC50 [1] | IC50 [2] |
| --- | --- | --- |
| CC[C@H](C)[C@@H]1NC(=O)[C@H](CCC(C)C)N(C)C(=O)C[C@@H](C(=O)N2CCOCC2)N(C)C(=O)[C@H]([C@@H](C)CC)N(C)C(=O)C2(CCCC2)NC(=O)[C@@H]2CCCN2C(=O)[C@H](CCc2ccc(C(F)(F)F)c(Cl)c2)NC(=O)CN(C)C(=O)[C@H](Cc2ccc(C(F)(F)F)cc2)N(C)C(=O)[C@@H]2CCN2C(=O)[C@H](C)NC1=O [Compound 1356] ([NMehLeu]IA[Aze][NMePhe(4-CF3)][Sar][hPhe(3-Cl-4-CF3)]P[Ac5c][NMeI][NMeD]-Morpholide; lactam N-11) | 1.1 nM | ≤ 20 nM |
| CC[C@H](C)[C@@H]1NC(=O)[C@H](CC(C)C)N(C)C(=O)C[C@@H](C)NC(=O)[C@H](C2CCCC2)N(C)C(=O)[C@@H](C(C)C)NC(=O)[C@@H]2CCCN2C(=O)[C@H](CCc2ccc(C(F)(F)F)c(Cl)c2)NC(=O)CN(C)C(=O)[C@H](Cc2ccc(C)cc2)N(C)C(=O)[C@@H]2CCN2C(=O)[C@H](C)N(C)C1=O [Compound 598] (cyclo([Aze][NMePhe(4-Me)][Sar][hPhe(3-Cl-4-CF3)]P[dV][NMeGly(cPent)][d(β3hA)][NMeL]I[NMeA])) | 300 nM | > 500 nM |
| CC[C@H](C)[C@@H]1NC(=O)[C@H](CC(C)C)N(C)C(=O)C[C@@H](C(=O)N2CCCC2)N(C)C(=O)[C@H]([C@@H](C)CC)N(C)C(=O)C2(CCCC2)NC(=O)[C@@H]2CCCN2C(=O)[C@H](CCc2cc(F)c(C(F)(F)F)c(F)c2)NC(=O)CN(C)C(=O)[C@H](Cc2ccc(C)cc2)N(CC)C(=O)[C@@H]2CCN2C(=O)[C@H](C)N(C)C1=O [Compound 1351] ([NMeL]I[NMeA][Aze][NEtPhe(4-Me)][Sar][hPhe(3,5-F2-4-CF3)]P[Ac5c][NMeI][NMeD]-Pyrrolidide; lactam N-11) | 0.82 nM | ≤ 20 nM |
| CC[C@H](C)[C@@H]1NC(=O)[C@H](CC(C)C)N(C)C(=O)C[C@@H](C(=O)N2CCCCC2)N(C)C(=O)[C@H](C(C)C)N(C)C(=O)C2(CCCC2)NC(=O)[C@@H]2CCCN2C(=O)[C@H](CCc2ccc(C(F)(F)F)c(Cl)c2)NC(=O)CN(C)C(=O)[C@H](CO)N(C)C(=O)[C@@H]2CCN2C(=O)[C@H](C)N(C)C1=O [Compound 1721] ([NMeL]I[NMeA][Aze][NMeS][Sar][hPhe(3-Cl-4-CF3)]P[Ac5c][NMeV][NMeD]-Piperidide; lactam N-11) | 22 nM | > 500 nM |
| CC[C@H](C)[C@@H]1NC(=O)[C@H](CC(C)C)N(C)C(=O)C[C@@H](C(=O)N2CCCCC2)N(C)C(=O)[C@H](C(C)C)N(C)C(=O)C2(CCCC2)NC(=O)[C@@H]2CCCN2C(=O)[C@H](CCc2ccc(C(F)(F)F)c(Cl)c2)NC(=O)CN(CC)C(=O)[C@H](CC2CCCCC2)N(C)C(=O)[C@@H]2CCN2C(=O)[C@H](C)N(C)C1=O [Compound 1276] ([NMeL]I[NMeA][Aze][NMeCha][NEtG][hPhe(3-Cl-4-CF3)]P[Ac5c][NMeV][NMeD]-Piperidide; lactam N-11) | 17 nM | > 500 nM |
| CC[C@H](C)[C@@H]1NC(=O)[C@H](CC(C)C)N(C)C(=O)C[C@@H](C(=O)N2CCC2)N(C)C(=O)[C@H](C2CCCC2)N(C)C(=O)C2(CCCC2)NC(=O)[C@@H]2CC(F)(F)CN2C(=O)[C@H](CCc2cc(F)c(C(F)(F)F)c(F)c2)NC(=O)CN(C)C(=O)[C@H](CC2CCCCC2)N(C)C(=O)[C@@H]2CCN2C(=O)[C@H](C)N(C)C1=O [Compound 1248] ([NMeL]I[NMeA][Aze][NMeCha][Sar][hPhe(3,5-F2-4-CF3)][Pro(4,4-F2)][Ac5c][NMeGly(cPent)][NMeD]-{Azetidin(1-yl)}; lactam N-11) | 0.67 nM | ≤ 20 nM |
| CC[C@H](C)[C@@H]1NC(=O)[C@H](C)N(C)C(=O)C[C@@H](C)NC(=O)[C@H](C2CCCC2)N(C)C(=O)C2(CCCC2)NC(=O)[C@@H]2CCCN2C(=O)[C@H](CCc2ccc(C(F)(F)F)c(Cl)c2)NC(=O)CN(C)C(=O)[C@H](Cc2cccnc2)N(C)C(=O)[C@@H]2CCCN2C(=O)CN(C)C1=O [Compound 489] (cyclo([Ac5c][NMeGly(cPent)][d(β3hA)][NMeA]I[Sar]P[NMe3Pal][Sar][hPhe(3-Cl-4-CF3)]P)) | 8.1 nM | > 500 nM |
| CC[C@H](C)[C@@H]1NC(=O)[C@H](C)N(C)C(=O)C[C@@H](C(=O)N2CCCCC2)N(C)C(=O)[C@H](C(C)C)N(C)C(=O)C2(CCCC2)NC(=O)[C@H](Cc2ccc(Cl)cc2)N(C)C(=O)[C@H](CCc2ccc(C(F)(F)F)c(Cl)c2)NC(=O)CN(C)C(=O)[C@H](CC2CCCCC2)N(C)C(=O)CN(C)C(=O)CN(C)C1=O [Compound 718] ([NMeA]I[Sar][Sar][NMeCha][Sar][hPhe(3-Cl-4-CF3)][NMePhe(4-Cl)][Ac5c][NMeV][NMeD]-Piperidide; lactam N-11) | 39 nM | > 500 nM |
| CC[C@H](C)[C@@H]1NC(=O)[C@H](C)N(C)C(=O)C[C@@H](C(=O)N2CCCCC2)N(C)C(=O)[C@H](C(C)C)N(C)C(=O)C2(CCCC2)NC(=O)[C@@H]2CCCN2C(=O)[C@H](CCc2ccc(C(F)(F)F)c(Cl)c2)NC(=O)CN(C)C(=O)[C@H](CC2CCCCC2)N(C)C(=O)[C@@H]2CCN2C(=O)[C@H](C)N(C)C1=O [Compound 1562] ([NMeA]I[NMeA][Aze][NMeCha][Sar][hPhe(3-Cl-4-CF3)]P[Ac5c][NMeV][NMeD]-Piperidide; lactam N-11) | 4.8 nM | > 500 nM |
